Literature values in patent US20120263714A1, “SUBSTITUTED HALOPHENOXYBENZAMIDE DERIVATIVES” (BAYER INTELLECTUAL PROPERTY GMBH, priority 2009, published 2012).

Assays:
MEK1/2 = MEK1/2 inhibitor, background statement
colon cancer = conditions: oral treatment, mouse models

IC50 (MEK1/2): low nanomolar range
SMILES: O=C(NOCC1CC1)c1ccc(F)c(F)c1Nc1ccc(I)cc1Cl [CI-1040]
colon cancer growth in vivo (colon cancer): inhibit colon cancer growth in vivo
